pIC50: −log10 of the molar value.
Columns and labels:
Pfeiffer = assay: Methylated lysine of histone-H3 (H3K27Me3) detection by ELISA, Pfeiffer cells; format: cell-based, human; details: Homo sapiens, 168 h, 7 days treatment, H3K27Me3 normalized to total histone-3, read-out: IC50 of cell methylation, Pfeiffer
Protocol: (§1) The operations for adherent cells and suspension cells cultured in 96-well plates were slightly different after they had been treated with compound (4-fold dilution 20 uM-0.009 nM, 3 duplicate wells) for 7 days, and the operations are summarized as follows: For adherent cells, after discarding the medium, 75 uL of 1-fold hypotonic lysis buffer (10 mM Tris-HCl, pH 7.5, containing halt protease inhibitor and PMSF with a final concentration of 1 mM) was added; the plate was frozen at −80° C. for at least 1 h or overnight; once the plate was taken away from the −80° C. environment, 120 uL (to a final volume of about 195 uL) of 1-fold hypotonic lysis buffer (containing protease inhibitor) was added, and the plate was thawed at room temperature and shaken for 2 min for mixing; and 8 uL (to a final volume of about 203 uL) of 2.5 M NaCl was added to each well to a final NaCl concentration of 100 mM and then the plate was shaken for an additional 2 min for mixing.
(§2) For suspension cells (final volume of medium was 100 uL/well), 25 uL of 5-fold hypotonic lysis buffer (50 mM Tris-HCl, pH 7.5, containing halt protease inhibitor and PMSF with a final concentration of 1 mM) was added, and the plate was frozen at −80° C. for at least 1 h or overnight. Once the plate was taken away from the −80° C. environment, 20 uL of 0.625 M NaCl was added to each well to a final NaCl concentration of about 100 mM, and the mixture was mixed well.
(§3) 75 uL or 100 uL of sample (with duplicate wells provided) was added to two 96-well ELISA plates (ThermoFisher Scientific; Immulon 4HBX 3885) and the plates were coated with total protein lysate and incubated overnight at 4° C. 50 uL of lysate was retained for protein quantitation if necessary. The sealing of the plates must be ensured. The plates were washed twice with 300 uL of 1×PBST (PBS containing 0.05% Tween 20) per well. Each well was blocked with 300 uL of dilution (PBS+2% BSA+0.05% Tween 20), incubated for 2 h at room temperature, and washed twice with 1×PBST. Primary antibodies were diluted with a dilution solution containing 1% BSA+0.05% Tween 20. 75-100 uL of anti-H3K27Me3 antibody (CST; 9733; 50% glycerol stock, 1:1,000) or anti-total histone-3 antibody (Abcam; ab1791; 50% glycerol stock, 1:10,000) was added to each well. The plates were incubated for 90 min at room temperature or incubated overnight at 4° C. The plates were washed three times with 1×PBST. 75-100 uL of anti-Rb-IgG-HRP secondary antibody (Cell Signaling Technology; 7074) was added per well, 1:2000 diluted secondary antibody for anti-H3K 27Me3 plate and 1:6000 diluted secondary antibody for anti-histone total histone-3 plate. The plates were incubated at room temperature for 90 min. The plate assayed with anti-histone-3 antibody was used to normalize the data for the corresponding plate assayed with anti-H3K 27me3. The plates must be washed at least three times with 1×PBST after primary or secondary antibody incubation. The plates were assayed by adding 75-100 uL of 3,3′,5,5′-tetramethylbenzidine substrate (CST or ThermoFisher Scientific; TMBS) per well and incubated away from light for 30 min at 37° C. The reaction was terminated by adding 100 uL of 0.5 M H2SO4 per well. The absorbance was read at 450 nm. Curve fitting was performed using Graph Pad program.

WSU-DLCL2 = assay: Methylated lysine of histone-H3 (H3K27Me3) detection by ELISA, WSU-DLCL2 cells; format: cell-based; details: Homo sapiens, WSUDLCL2, 168 h; WSU-DLCL2, 7 days treatment, H3K27Me3 normalized to total histone-3; read-out: IC50 of cell methylation, WSU-DLCL2
Protocol: as §1, §2, §3

EZH2 enzyme complex = EZH2 enzyme complex (Homo sapiens (Human), UniProt Q15910); assay: Test on EZH2 inhibitory activity (TR-FRET); format: biochemical; details: EZH2 enzyme complex 25 ng/uL, histone H3 peptide 4 uM, SAM 2 uM, 300 min; read-out: IC50 of EZH2 inhibition
Sequence of EZH2 enzyme complex (Q15910 whole entry): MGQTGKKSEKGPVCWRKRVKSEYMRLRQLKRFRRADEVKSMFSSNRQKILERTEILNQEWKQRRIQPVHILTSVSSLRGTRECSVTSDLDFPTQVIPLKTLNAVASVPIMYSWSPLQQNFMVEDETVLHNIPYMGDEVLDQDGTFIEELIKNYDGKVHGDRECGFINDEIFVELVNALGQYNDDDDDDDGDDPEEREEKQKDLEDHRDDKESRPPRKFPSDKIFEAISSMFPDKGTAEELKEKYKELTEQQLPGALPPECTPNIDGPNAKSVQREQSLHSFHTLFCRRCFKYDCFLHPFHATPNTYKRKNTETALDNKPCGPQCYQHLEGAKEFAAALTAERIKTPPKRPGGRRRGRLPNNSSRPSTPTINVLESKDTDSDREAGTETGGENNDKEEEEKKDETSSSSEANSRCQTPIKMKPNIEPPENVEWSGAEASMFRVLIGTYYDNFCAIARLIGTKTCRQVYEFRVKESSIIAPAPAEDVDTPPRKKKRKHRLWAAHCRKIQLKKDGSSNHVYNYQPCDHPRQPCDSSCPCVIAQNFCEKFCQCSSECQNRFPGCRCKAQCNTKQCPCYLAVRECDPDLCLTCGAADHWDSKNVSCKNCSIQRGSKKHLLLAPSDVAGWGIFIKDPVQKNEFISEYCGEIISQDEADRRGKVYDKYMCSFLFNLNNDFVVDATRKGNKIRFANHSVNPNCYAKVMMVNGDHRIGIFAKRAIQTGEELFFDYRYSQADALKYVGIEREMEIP
Sequence of EZH2 enzyme complex (O75530 whole entry partner): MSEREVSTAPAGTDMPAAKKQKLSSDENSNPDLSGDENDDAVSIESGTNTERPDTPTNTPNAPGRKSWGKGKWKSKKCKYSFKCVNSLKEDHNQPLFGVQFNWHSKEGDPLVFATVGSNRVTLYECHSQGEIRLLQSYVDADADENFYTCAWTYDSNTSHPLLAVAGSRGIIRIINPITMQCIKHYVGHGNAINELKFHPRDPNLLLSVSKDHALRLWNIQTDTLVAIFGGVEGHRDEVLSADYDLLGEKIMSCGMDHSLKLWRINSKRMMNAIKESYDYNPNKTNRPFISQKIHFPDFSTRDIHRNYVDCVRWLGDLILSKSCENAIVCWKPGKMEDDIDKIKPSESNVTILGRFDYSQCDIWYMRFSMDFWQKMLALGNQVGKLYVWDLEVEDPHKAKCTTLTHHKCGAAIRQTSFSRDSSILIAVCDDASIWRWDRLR
Sequence of EZH2 enzyme complex (Q15022 whole entry partner): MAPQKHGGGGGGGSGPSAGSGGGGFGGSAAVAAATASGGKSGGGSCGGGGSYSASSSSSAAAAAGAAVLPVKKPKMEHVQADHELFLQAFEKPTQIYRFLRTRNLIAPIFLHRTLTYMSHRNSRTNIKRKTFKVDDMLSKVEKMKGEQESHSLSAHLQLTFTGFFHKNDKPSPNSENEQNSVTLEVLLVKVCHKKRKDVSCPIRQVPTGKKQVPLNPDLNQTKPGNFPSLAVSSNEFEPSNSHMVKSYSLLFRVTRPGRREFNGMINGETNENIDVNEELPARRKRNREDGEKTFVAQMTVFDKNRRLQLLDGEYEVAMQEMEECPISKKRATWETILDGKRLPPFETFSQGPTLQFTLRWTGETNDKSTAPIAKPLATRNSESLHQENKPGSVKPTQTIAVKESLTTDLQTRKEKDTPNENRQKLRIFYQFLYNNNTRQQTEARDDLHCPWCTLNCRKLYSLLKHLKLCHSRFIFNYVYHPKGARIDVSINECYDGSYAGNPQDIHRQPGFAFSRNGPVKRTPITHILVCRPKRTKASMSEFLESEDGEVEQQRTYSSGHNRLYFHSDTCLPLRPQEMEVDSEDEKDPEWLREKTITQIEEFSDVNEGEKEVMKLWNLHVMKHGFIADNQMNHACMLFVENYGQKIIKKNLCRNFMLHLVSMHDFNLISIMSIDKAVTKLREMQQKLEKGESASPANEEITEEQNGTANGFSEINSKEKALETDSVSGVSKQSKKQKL
Protocol: • EZH2 enzyme complex: 25 ng/uL • Histone H3 peptide substrate: 4 uM • SAM: 2 uM • Reaction time: 300 min Procedures • 1. Each compound disclosed herein was diluted with 1×HMT buffer and transferred to a 384-well assay plate at 3 uL per well; • 2. The EZH2 enzyme solution was prepared with 1×HMT buffer and transferred to the 384-well assay plate at 2 uL per well; • 3. The above assay plate was incubated for 30 min; • 4. A mixture solution of SAM and histone H3 peptide substrate at 2-fold concentration was prepared with 4×HMT buffer; • 5. 5 uL of the mixture solution of SAM and substrate was added to each well of the assay plate to react at room temperature, and the assay plate was sealed with plastic; • 6. After incubation for 5 h, 10 uL of TR-FRET detection buffer containing Tb-labeled antibody and dye-labeled receptor was added to each well of the assay plate; • 7. After incubation for 1 h at room temperature, the assay plate was detected; • 8.

| SMILES | pIC50 (Pfeiffer) | pIC50 (WSU-DLCL2) | pIC50 (EZH2 enzyme complex) |
| --- | --- | --- | --- |
| CCN(c1cc(OC2CCC2)cc(C(=O)NCc2c(C)cc(C)[nH]c2=O)c1C)C1CCOCC1 [Example 1, 5-cyclobutoxy-N-((4,6-dimethyl-2-oxo-1,2-dihydropyridin-3-yl)methyl)-3-(ethyl(tetrahydro-2H-pyran-4-yl)amino)-2-methylbenzamide] | > 7.30 | 6.30 to 7.30 | 7.00 to 8.00 |
| CCN(c1cc(OC2CC(C)C2)cc(C(=O)NCc2c(C)cc(C)[nH]c2=O)c1C)C1CCOCC1 (stereo not shown) [Example 2, N-((4,6-dimethyl-2-oxo-1,2-dihydropyridin-3-yl)methyl)-3-(ethyl(tetrahydro-2H-pyran-4-yl)amino)-2-methyl-5-(3-methylcyclobutoxy)benzamide] | 6.30 to 7.30 | 6.00 to 6.30 | 7.00 to 8.00 |
| CCN(c1cc(OC2CC(F)(F)C2)cc(C(=O)NCc2c(C)cc(C)[nH]c2=O)c1C)C1CCOCC1 [Example 3, 5-(3,3-difluorocyclobutoxy)-N-((4,6-dimethyl-2-oxo-1,2-dihydropyridin-3-yl)methyl)-3-(ethyl(tetrahydro-2H-pyran-4-yl)amino)-2-methylbenzamide] | > 7.30 | 6.30 to 7.30 | 7.00 to 8.00 |
| CCN(c1cc(O[C@H]2C[C@@H](CN3CCOCC3)C2)cc(C(=O)NCc2c(C)cc(C)[nH]c2=O)c1C)C1CCOCC1 [Example 6, N-((4,6-dimethyl-2-oxo-1,2-dihydropyridin-3-yl)methyl)-3-(ethyl(tetrahydro-2H-pyran-4-yl)amino)-2-methyl-5-(cis-3-(morpholinylmethyl)cyclobutoxy)benzamide] | > 7.30 | 6.30 to 7.30 | 7.00 to 8.00 |
| CCN(c1cc(O[C@H]2C[C@H](CN3CCOCC3)C2)cc(C(=O)NCc2c(C)cc(C)[nH]c2=O)c1C)C1CCOCC1 [Example 7, N-((4,6-dimethyl-2-oxo-1,2-dihydropyridin-3-yl)methyl)-3-(ethyl(tetrahydro-2H-pyran-4-yl)amino)-2-methyl-5-(trans-3-(morpholinylmethyl)cyclobutoxy)benzamide] | > 7.30 | 6.30 to 7.30 | 7.00 to 8.00 |
| CCN(c1cc(SC2CCC2)cc(C(=O)NCc2c(C)cc(C)[nH]c2=O)c1C)C1CCOCC1 [Example 8, 5-(cyclobutylthio)-N-((4,6-dimethyl-2-oxo-1,2-dihydropyridin-3-yl)methyl)-3-(ethyl(tetrahydro-2H-pyran-4-yl)amino)-2-methylbenzamide] | 6.30 to 7.30 | < 6.00 | 7.00 to 8.00 |
| CCN(c1cc([S+]([O-])C2CCC2)cc(C(=O)NCc2c(C)cc(C)[nH]c2=O)c1C)C1CCOCC1 (stereo not shown) [Example 9, 5-(cyclobutylsulfinyl)-N-((4,6-dimethyl-2-oxo-1,2-dihydropyridin-3-yl)methyl)-3-(ethyl(tetrahydro-2H-pyran-4-yl)amino)-2-methylbenzamide] | 6.00 to 6.30 | 6.00 to 6.30 | 6.00 to 7.00 |
| CCN(c1cc(S(=O)(=O)C2CCC2)cc(C(=O)NCc2c(C)cc(C)[nH]c2=O)c1C)C1CCOCC1 [Example 10, 5-(cyclobutylsulfonyl)-N-((4,6-dimethyl-2-oxo-1,2-dihydropyridin-3-yl)methyl)-3-(ethyl(tetrahydro-2H-pyran-4-yl)amino)-2-methylbenzamide] | 6.00 to 6.30 | < 6.00 | 6.00 to 7.00 |
| CCN(c1cc(OC2CCC2)cc(C(=O)NCc2c(C)cc(C)[nH]c2=O)c1Cl)C1CCOCC1 [Example 11, 2-chloro-5-cyclobutoxy-N-((4,6-dimethyl-2-oxo-1,2-dihydropyridin-3-yl)methyl)-3-(ethyl(tetrahydro-2H-pyran-4-yl)amino) benzamide] | 6.30 to 7.30 | 6.30 to 7.30 | 7.00 to 8.00 |
| CCN(c1cc(OC2CC(C)(C)C2)cc(C(=O)NCc2c(C)cc(C)[nH]c2=O)c1C)C1CCOCC1 [Example 12, N-((4,6-dimethyl-2-oxo-1,2-dihydropyridin-3-yl)methyl)-5-(3,3-dimethylcyclobutoxy)-3-(ethyl(tetrahydro-2H-pyran-4-yl)amino)-2-methylbenzamide] | 6.30 to 7.30 | < 6.00 | 7.00 to 8.00 |
| CCN(c1cc(C2CC2)cc(C(=O)NCc2c(C)cc(C)[nH]c2=O)c1C)C1CCOCC1 [Example 14, 5-cyclopropyl-N-((4,6-dimethyl-2-oxo-1,2-dihydropyridin-3-yl)methyl)-3-(ethyl(tetrahydro-2H-pyran-4-yl)amino)-2-methylbenzamide] | > 7.30 | 6.30 to 7.30 |  |
| CCN(c1cc(O[C@H]2C[C@@H](N3C[C@@H](C)O[C@@H](C)C3)C2)cc(C(=O)NCc2c(C)cc(C)[nH]c2=O)c1C)[C@H]1C[C@@H](C)O[C@@H](C)C1 [Example 33] | 6.30 to 7.30 |  | 6.00 to 7.00 |
| CCN(c1cc(O[C@H]2C[C@H](N3C[C@@H](C)O[C@@H](C)C3)C2)cc(C(=O)NCc2c(C)cc(C)[nH]c2=O)c1C)[C@H]1CC[C@H](N(C)CCOC)CC1 [Example 52, N-((4,6-dimethyl-2-oxo-1,2-dihydropyridin-3-yl)methyl)-5-(trans-3-(cis-2,6-dimethylmorpholinyl)cyclobutoxy)-3-(ethyl(trans-4-((2-methoxyethyl)(methyl)amino)cyclohexyl)amino)-2-methylbenzamide] |  | 6.00 to 6.30 | 7.00 to 8.00 |
| CCN(c1cc(O[C@H]2C[C@H](N3CC4CC(C3)O4)C2)cc(C(=O)NCc2c(C)cc(C)[nH]c2=O)c1Cl)C1CCOCC1 [Example 55] |  | 6.30 to 7.30 | 7.00 to 8.00 |
| CCN(c1cc(C2CC2CN2CCN(C(=O)OC)CC2)cc(C(=O)NCc2c(C)cc(C)[nH]c2=O)c1C)C1CCOCC1 (stereo not shown) [Example 80, methyl 4-((2-(3-(((4,6-dimethyl-2-oxo-1,2-dihydropyridin-3-yl)methyl)carbamoyl)-5-(ethyl(tetrahydro-2H-pyran-4-yl)amino)-4-methylphenyl)cyclopropyl)methyl)piperazine-1-carboxylate] |  | > 7.30 | 7.00 to 8.00 |
| CCN(c1cc(C2CC2CN2CCOCC2)cc(C(=O)NCc2c(C)cc(C)[nH]c2=O)c1C)[C@H]1CC[C@H](N(C)CCOC)CC1 (stereo partly drawn) [Example 82, N-((4,6-dimethyl-2-oxo-1,2-dihydropyridin-3-yl)methyl)-3-(ethyl(trans-4-((2-methoxyethyl)(methyl)amino)cyclohexyl)amino)-2-methyl-5-(2-(morpholinylmethyl)cyclopropyl)benzamide] |  | 6.30 to 7.30 | 7.00 to 8.00 |
| CCN(c1cc(C2CC2CN2CCNCC2)cc(C(=O)NCc2c(C)cc(C)[nH]c2=O)c1Cl)C1CCOCC1 (stereo not shown) [Example 83, 2-chloro-N-((4,6-dimethyl-2-oxo-1,2-dihydropyridin-3-yl)methyl)-3-(ethyl(tetrahydro-2H-pyran-4-yl)amino)-5-(2-(piperazin-1-ylmethyl)cyclopropyl)benzamide] |  | < 6.00 | 7.00 to 8.00 |
| CCN(c1cc(C2CC2CN2C[C@@H](C)O[C@@H](C)C2)cc(C(=O)NCc2c(C)cc(C)[nH]c2=O)c1Cl)C1CCOCC1 (stereo partly drawn) [Example 85, 2-chloro-N-((4,6-dimethyl-2-oxo-1,2-dihydropyridin-3-yl)methyl)-5-(2-(((2S,6R)-2,6-dimethylmorpholinyl)methyl)cyclopropyl)-3-(ethyl(tetrahydro-2H-pyran-4-yl)amino)benzamide] |  | 6.00 to 6.30 | 6.00 to 7.00 |

Reference: patent publication US12390472B2 (SUZHOU SINOVENT PHARMACEUTICALS CO., LTD., priority 2018, dated 2025)
